Reference: article PMC12447391 (2025)

Columns and labels:
[1] = test system: TESS.1_trimmed in Apta-gel (DNA, aptamer) ACGGGATGTCCGGGGTACGGTGGTTGCAGTTCGTTTTTTTCCGATTACAGCC; experiment: OECT transient response, equilibrium titration; details: PBS, immobilised aptamer
[2] = test system: R5MPT (DNA, aptamer) CGGGCGACGGGGATTTTTGGTGCACTATGTGGTTCGTTCGGGGTGGGCTGCGTTCTCCATTCTGGTTTTTTCCGATTACAGCC; experiment: CD; details: PBS, 25 °C; 1 μM aptamer, 1 μM cortisol; peaks shift
[3] = test system: Ref (DNA, aptamer) CGACCGGTCTGGGGACCCTGTCTGGGTGTGTGGGTAGTAGGTCGTTTTTTCCGATTACAGCC; experiment: ITC; details: PBS, 25 °C
[4] = test system: R5MPT (DNA, aptamer) CGGGCGACGGGGATTTTTGGTGCACTATGTGGTTCGTTCGGGGTGGGCTGCGTTCTCCATTCTGGTTTTTTCCGATTACAGCC; experiment: ITC; details: PBS, 25 °C
[5] = test system: Ref in Apta-gel (DNA, aptamer) CGACCGGTCTGGGGACCCTGTCTGGGTGTGTGGGTAGTAGGTCGTTTTTTCCGATTACAGCC; experiment: nonfaradic EIS of Apta-gel; details: PBS; effective capacitance rises at 21 °C, falls at 35 °C
[6] = test system: R5MPT in Apta-gel (DNA, aptamer) CGGGCGACGGGGATTTTTGGTGCACTATGTGGTTCGTTCGGGGTGGGCTGCGTTCTCCATTCTGGTTTTTTCCGATTACAGCC; experiment: OECT flow-cell kinetics (koff/kon); details: PBS, 25 °C; apparent; kon 201.4 M^-1 s^-1, koff 0.0067 s^-1; immobilised aptamer
[7] = test system: Ref in Apta-gel (DNA, aptamer) CGACCGGTCTGGGGACCCTGTCTGGGTGTGTGGGTAGTAGGTCGTTTTTTCCGATTACAGCC; experiment: OECT transient response, equilibrium titration; details: PBS, 21 °C; apparent; immobilised aptamer

| Compound | KD, apparent [1] [µM] | binding [2] | KD [3] [µM] | KD [4] [µM] | binding [5] | KD [6] [µM] | KD [7] [µM] |
| --- | --- | --- | --- | --- | --- | --- | --- |
| C[C@]12CC[C@H]3[C@@H](CCC4=CC(=O)CC[C@@]43C)[C@@H]1CC[C@@H]2O | 0.303 | – | – | – | – | – | – |
| C[C@]12CCC(=O)C=C1CC[C@@H]1[C@@H]2[C@@H](O)C[C@@]2(C)[C@H]1CC[C@]2(O)C(=O)CO | – | yes | 3.75 | 10.2 | yes | 33 | 45.95 |
